Assay results from patent US20200383985A1, “Inhibitors of Protease Activated Receptor-2” (Endosome Therapeutics, Inc., priority 2017, published 2020).
Values joined by “and” are separate entries in the source; they are usually repeats but may differ in a detail not shown here. Identical values can stand only once. “Also recorded” adds a separate entry of the source.

Legend:
PAR2 = molecular target: T1, PAR2 (Homo sapiens, UniProt P55085); assay: IP1 accumulation assay in HT-29 cells (endogenous PAR2); type: cell-based; conditions: 2F (300 nM)-induced IP1, HT-29 cells; read-out: HT-29 300 nM 2F pIC50 ± SEM (converted)
T1 construct: HT-29 cells and HEK293 cells, which express endogenous PAR2; endogenous in cells; host or cells: HT-29
T1 sequence (P55085 26-397): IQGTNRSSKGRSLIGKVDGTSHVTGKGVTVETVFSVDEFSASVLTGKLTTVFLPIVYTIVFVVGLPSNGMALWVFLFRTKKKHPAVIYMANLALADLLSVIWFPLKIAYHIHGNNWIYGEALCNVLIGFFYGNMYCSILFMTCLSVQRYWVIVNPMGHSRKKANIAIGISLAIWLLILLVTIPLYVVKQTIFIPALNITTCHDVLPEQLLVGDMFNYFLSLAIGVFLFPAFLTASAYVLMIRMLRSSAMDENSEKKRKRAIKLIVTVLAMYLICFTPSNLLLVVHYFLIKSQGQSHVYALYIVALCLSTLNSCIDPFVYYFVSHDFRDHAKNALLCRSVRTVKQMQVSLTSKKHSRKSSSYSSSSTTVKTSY
Outline: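 KNRK-hPAR2 or HT-29 cells (50×10³/well, 24 h) in LiCl-containing stimulation buffer, pre-incubated with antagonist 30 min at 37 °C, then stimulated 40 min with 2F at 100 or 300 nM (EC80) or 10 μM ATP. IP1 in lysate quantified by HTRF; IC50 from concentration-response.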

mice = assay: Colonic compliance in awake mice; type: in vivo, mouse; conditions: awake healthy mice
Method: Noxious colorectal distension (CRD) triggers the visceromotor response (VMR), a nociceptive brainstem reflex consisting of contraction of abdominal muscles, which can be monitored by electromyography. This approach allows assessment of visceral sensitivity in awake mice (Castro, J. et al., Br. J. Pharmacol. 2017, 175(12): 2384-2398). To examine protease-induced hy-persensitivity, a protease mixture (10 nM trypsin+100 nM NE+100 nM CS) or vehicle (saline) (100 μL) was instilled into the colon (enema) of healthy mice. After 15 min, the VMR was measured in response to graded CRD (20-80 mm Hg) with a barostat balloon. In vehicle-treated mice, CRD induced a graded VMR (FIG. 9I). […] Because alterations in the compliance of the colon can alter VMR to CRD, the pressure/volume relationship was measured at all distending pressures. Compliance of the colon was unaffected by the protease mixture or I-343 (FIGS. 21E and F). […]
Electromyography (EMG) of abdominal muscles was used to monitor VMR to CRD (Eichel, K. et al., Nat. Cell Biol. 2016, 18(3): 303-310). […] The EMG signal was recorded (NL100AK headstage), amplified (NL104), filtered (NL 125/126, Neurolog, Digitimer Ltd, bandpass 50-5000 Hz), and digitized (CED 1401, Cambridge Electronic Design) for off-line analysis using Spike2 (Cambridge Electronic Design). […]

- IC50 (PAR2): 1.17 nM and 1.1 nM
- compliance of the colon (pressure/volume relationship) (mice): unaffected; also recorded: unchanged
Compound: Cc1nc(C(=O)N2CCN(C(=O)c3cn4nc(-c5ccc(F)cc5)cc(C(C)(C)C)c4n3)C(C)(C)C2)n[nH]1 [Compound I-343, (8-(tert-butyl)-6-(4-fluorophenyl)imidazo[1,2-b]pyridazin-2-yl)(2,2-dimethyl-4-(5-methyl-1H-1,2,4-triazole-3-carbonyl)piperazin-1-yl)methanone]
